Results from patent publication US9144594B2, “Cathepsin L mediated diseases and associated methods and products” (University of Miami, priority 2005, dated 2015).
Entries after “also recorded” stand apart in the source; their conditions may differ. Where a SMILES comes first, the peptide text is derived from it. The star is where a group is joined. Cbz = O=C(OCc1ccccc1)*; CH2F = FC*

Assays:
[1] = biological target: T1, CatB (Mus musculus, UniProt P10605); test: Cathepsin activity in podocytes with fluorogenic substrate CV-(FR)2, CatB; type: cell-based
T1 construct: endogenous in cells; host or cells: cultured mouse podocytes
T1 sequence (P10605 80-333): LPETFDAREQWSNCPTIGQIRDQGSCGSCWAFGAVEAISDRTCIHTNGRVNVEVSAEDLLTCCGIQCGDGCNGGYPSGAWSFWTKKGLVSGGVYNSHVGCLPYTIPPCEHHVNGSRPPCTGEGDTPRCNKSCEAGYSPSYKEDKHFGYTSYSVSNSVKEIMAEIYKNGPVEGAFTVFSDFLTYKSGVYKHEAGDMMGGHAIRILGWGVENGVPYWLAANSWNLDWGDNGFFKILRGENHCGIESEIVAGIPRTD
Description: (§1) Finally, it was examined whether CatL can be enzymatically active in the cytosol. Subcellular sites of CatL and CatB activity were visualized by a fluorogenic substrate, CV-(FR)2, which emits light upon cleavage by CatL. In untreated podocytes, protease activity was low and confined to perinuclear lysosomes (FIG. 17F).

[2] = system: cathepsin L; test: Generation of dynamin p40 fragment in LPS-treated cultured podocytes (Western blot); type: cell-based, mouse; details: LPS-treated podocytes expressing dynWT
Description: Next, it was examined whether cathepsin L could process dynamin in vivo, and whether this processing required GTP binding by dynamin. To this end, cultured podocytes were infected with adenoviruses expressing dynWT as well as different dynamin mutants. Infected podocytes were subsequently treated with LPS. LPS treatment increases cathepsin L presence and the activity in the cytosol (FIG. 3), and thus is expected to induce generation of the 40 kD proteolytic fragment. Respective cytosols were probed using the GTPase antibodies in order to detect N-terminal 40 kD proteolytic fragment. Expression of dynWT in podocytes treated with LPS identified proteolytic fragments that traveled with the same mobility as fragments observed in vitro. […] Furthermore, significant amount of p40 was present in cells expressing dynR725A prior to LPS treatment. […] Given complete protection of cathepsin L cleavage by GTPγS, it was reasoned that LPS treatment was somehow inducing dynR725A self-assembly, which in turn was protecting dynR725A from cathepsin L cleavage. This in turn would explain ability of dynR725A to counteract LPS and PAN treatment (FIG. 1D). […] Biochemical difference between dynWT, dynK694A and dynR725A is that only dynR725A is impaired in the rate of GTP-hydrolysis of assembled dynamin. This is important because GTP-hydrolysis drives disassemble of dynamin. Thus, while all three dynamins are predicted to self-assemble by LPS treatment, only dynR725A will stay assembled due to its inability to hydrolyze GTP. Once assembled dynWT and dynK694A hydrolyze GTP they will fall apart and thus become accessible for cathepsin L cleavage.
To explore CatL-mediated dynamin cleavage in vivo, cultured podocytes were infected with adenoviruses encoding different dynamin mutants and subsequently treated with LPS (FIG. 19G). […] To confirm the identity of the cleavage site, the ELSGGA (SEQ ID NO.29) sequence was mutated to EQSVGA (SEQ ID NO.31) (for simplicity, the mutant is subsequently referred to as dynL356Q). […] Finally, a GTPase-defective dynamin mutant was examined. Dynamin carrying a mutation in its […] (dynR725A) oligomerizes, but is impaired in assembly-stimulated GTP-hydrolysis. DynR725A is therefore predicted to live longer in the assembled state.
Podocytes were grown under non-permissive conditions to 70% confluence. Cells were washed twice with 1×PBS and infected with 1.2 ml of serum-free DMEM media containing 100 μl transactivator virus, 100 μl virus expressing dyn1 or dyn2. After 2 h of infection at 37° C., media containing virus was replaced with full DMEM. If cells were treated with LPS or PAN, 50 μg/ml of LPS or 50 μg/ml PAN was added at this point. 18-24 h post-infection, cells were detached using trypsin and processed either for subcellular fractionation or tested in the motility assays as described in (Reiser et al., J Biol Chem 279, 34827-34832 (2004)). When stated, 20 μM of Z-FF-FMK CatL specific inhibitor (Calbiochem, San Diego, Calif.) was added simultaneously with addition of LPS.

[3] = system: CatL; test: Cathepsin activity in LPS-treated podocytes with fluorogenic substrate CV-(FR)2; type: cell-based, mouse; details: after LPS administration
Description: as §1

[4] = system: CatL-mediated degradation of synaptopodin; test: Western blot of isolated glomeruli, LPS-induced degradation of synaptopodin and RhoA; type: in vivo, mouse; details: FIG. 29B
Description: FIG. 29A: SDS-PAGE analysis of urines from control and LPS-injected mice (top). Quantitative analysis of albuminuria (bottom). FIG. 29B: Western blot analysis of isolated glomeruli showing that LPS causes the degradation of endogenous synaptopodin and RhoA.

[5] = system: LPS-induced proteinuria; test: LPS-induced proteinuria in mice treated with inhibitors, albuminuria by gel quantification; type: in vivo, mouse; details: FIG. 29A
Method: Proteinuria was induced in male B6 mice (n=5 per group) by LPS injection. The mice were injected the mice with 250 μg ultrapure LPS (InvivoGen) intraperitoneally (i.p.) and started treatment with 200 μg cathepsin L inhibitor VI (Calbiochem) 30 min after disease induction. The LPS and inhibitor injections were repeated at 24 h and the mice were sacrificed at 48 h.
To quantify the level of proteinuria, urine was diluted with double-distilled water, boiled the diluted urine in sample buffer and analyzed the samples by NuPAGE (Invitrogen) followed by Coomassie blue staining BSA standards (from 0.125 to 2.0 μg) were run on the same gel and were used to identify and quantify urinary albumin bands. The albumin bands were quantified with ImageJ software (NIH) and determined the creatinine abundance from the same urine samples with a commercial kit (Cayman Chemical) according to the manufacturer's protocol.

Row | Structure (SMILES) | inhibition of CatB, in words [1] | dynamin cleavage / p40 generation with inhibitor, in words [2] | extralysosomal cathepsin activity, in words [3] | LPS-induced degradation of synaptopodin and RhoA, in words [4] | LPS-induced proteinuria (albuminuria), in words [5]
1 | O=C(NC(Cc1ccccc1)C(=O)NC(Cc1ccccc1)C(=O)CF)OCc1ccccc1 (stereo not drawn) [Z-FF-FMK, Z-Phe-Phe-fluoromethyl ketone, reference compound] (Cbz-Phe-Phe-CH2F; configuration not given here) | does not inhibit CatB | resulted specifically in the loss of p40; also recorded: inhibited | vast majority of extralysosomal cathepsin activity after LPS administration was sensitive | – | –
2 | CC(C)C[C@H](NC(=O)[C@H]1O[C@@H]1C(=O)O)C(=O)NCCCCN=C(N)N [E64] | – | cleavage could be blocked | – | block the LPS-induced degradation of synaptopodin and RhoA | ameliorate LPS-induced proteinuria
